# Source: patent US9498546B2, “Synthesis and application of novel imaging agents conjugated to DPA 713 analogs for imaging inflammation” (THE JOHNS HOPKINS UNIVERSITY, priority 2012, dated 2016)
# Assays:
# [1] = target: T1, TSPO (3H-R-PK11195 binding in J774 macrophages) (Mus musculus, UniProt P50637); test: IC50 determination: inhibition of [3H]PK11195 binding in live J774 macrophage-like cells; set-up: species or system murine; conditions: fixed concentration of [3H]PK11195, FIG. 3
# T1 construct: using a fixed number of live murine J774 macrophage-like cells; endogenous in cells; host or cells: J774 murine macrophage-like cell line (live cells)
# Method: FIG. 3 is a graph showing the IC50 for inhibition of 3H-R-PK11195 binding in J774 macrophages by DPA713-IRDye680LT (nM).
# The IC50 value determination was done by using a fixed number of live murine J774 macrophage-like cells and incubating increasing concentrations of DPA-713-IRDye against a fixed concentration of [^3H]PK11195. All reactions and washes (50 mM Tris, pH 7.4) are done using a Brandell Cell Harvester and the cells are counted in a scintillation counter with scintillent at the end. The cpm for each group is then plotted against the log of DPA-713-IRDye concentration and the data fitted to a sigmoidal curve. The 50% inhibition of [^3H]PK11195 binding is then determined and reported as the IC50 (FIG. 3).
# [2] = system: LPS-stimulated J774 macrophages (TSPO); test: In vitro J774 murine macrophage uptake studies (fluorescence microscopy, with or without blocking); assay type: cell-based
# Method: FIG. 4 is a series of photomicrographs (A-I) of J774 macrophages that were cultured in 8 well chamber slides to 80% confluence. LPS was then added to each well for 24 hours to stimulate the cells. […] The cells were returned to the incubator for either 1 hour or 24 hours. The solutions were then removed, the nuclei were labeled with Hoechst 33342 and the cells were briefly washed before mounting and viewing under a fluorescence microscope.
# In vitro J774 murine macrophage uptake studies. The immortalized J774 murine macrophage-like cell line was cultured in RPMI1640+20% FBS+1% penicillin+ streptomycin media in 8-well chamber slides (Fisher Scientific) to approximately 80% confluence. The cells were then stimulated with 1 ng/mL of LPS (Sigma, E. coli 055:B5) for 24 hours prior to addition of the probes of the present invention to 40 nM final concentration. […] The cells were exposed to the fluorescent probes and blocking compounds for either 1 hour or 24 hours prior to exposing to 1 ng/mL of Hoechst 33342 dye (Invitrogen), followed by washing twice briefly with PBS, pH 7.5. The chambers were then removed and the slide mounted with Dako Cytomation aqueous mounting media and a glass coverslip. The cells were visualized using a Nikon 80i upright epifluorescence microscope equipped with a Nikon DS-QilMc darkfield CCD camera and processed using Nikon Image Software on an adjacent workstation. The dyes were excited using either a Nikon Intensilight C-HGFI lamp (IRDye680 and Hoechst) or a Sutter Instruments Co. (Novato, Calif.) LB/LB-30 xenon lamp (IRDye800).
# J774 Cell Uptake Studies. J774 macrophages were cultured in 8 well chamber slides to 80% confluence. LPS was then added to each well for 24 hours to stimulate the cells. […] The cells were returned to the incubator for either 1 hour or 24 hours. The solutions were then removed, the nuclei were labeled with Hoechst 33342 and the cells were briefly washed before mounting and viewing under a fluorescence microscope. […] The tracer localization for both analogs is perinuclear and granular in appearance and is consistent with the gross distribution pattern of TSPO expression in other mononuclear cell-derived lines.
# [3] = system: TSPO+ PC-3 PIP and PC-3 flu prostate xenografts; test: In vivo NIRF imaging in PC-3 PIP and PC-3 flu xenograft bearing mice; set-up: species or system athymic nude mice; conditions: for Distribution of fluorescent signal, tracer only: 8 nmol intraperitoneally
# Method: FIG. 7 depicts imaging of athymic nude mice bearing two subcutaneous xenografts each consisting of one PC-3 PIP (PSMA+ stable transfected, macrophage and vasculature enriched) and PC-3 flu (PC-3 transfected with empty vector) were injected intraperitoneally with 8 nmol of DPA-713-IRDye680LT when the tumors reached 4-8 mm in diameter. […] The mice were imaged in vivo at 1 hour post-injection and again at 24 hours post-injection.
# Prostate lines PC-3 PIP (PSMA stable transfected) and PC-3 flu (empty vector transfected) cells were originally a gift from Warren B. Heston (Cleveland Clinic Foundation). PC-3 is androgen insensitive and constituitively expresses TSPO. […] Intact male athymic nude mice were inoculated subcutaneously with 2×10^6 PC-3 PIP cells behind the right forearm and 2×10^6 PC-3 flu cells behind the left forearm and were allowed to grow for 14 days until they reached 1 cm in longest diameter. Mice bearing LNCaP xenografts were inoculated with 5×10^6 cells in Matrigel (1:1, vol:vol) (Becton Dickenson, Franklin Lakes, N.J.) and were allowed to grow for a year before they reached 1 cm in diameter. The mice were then used in imaging experiments as described below.
# PC-3 PIP and -flu xenograft bearing mice. […] The mice were anesthetized with isoflurane gas (2% in oxygen) and imaged at 1 hour and 24 hours post-injection using the Pearl Impulse imager using the 680 absorption/710 emission channels (DPA-713-IRDye680LT). PIP/flu and LNCaP-bearing mice were imaged using the inventive probe DPA-713-IRDye800CW at 1 hour post-injection using a Perkin Elmer IVIS 200 instrument set to absorb at 790 nm and emit at 810 nm. Images were visualized and processed using the manufacturer's Living Image software.
# Prostate tumors that have become androgen insensitive constituitively express TSPO, including the PC-3 cell line. Athymic nude mice bearing two subcutaneous xenografts each consisting of one PC-3 PIP (PSMA+ stable transfected, macrophage and vasculature enriched) and PC-3 flu (PC-3 transfected with empty vector) were injected intraperitoneally with 8 nmol of DPA-713-IRDye680LT when the tumors reached 4-8 mm in diameter. […] The mice were imaged in vivo at 1 hour post-injection and again at 24 hours post-injection.
structure (smiles),measurement,setting,value
"CCN(CC)C(=O)Cc1c(-c2ccc(OCCNC(=O)CCCCc3cccc(C(=C\C=C4/N(CCCS(=O)(=O)O)c5ccc6c(S(=O)(=O)O)cc(S(=O)(=O)O)cc6c5C4(C)C)/C=C/C4=[N+](CCCS(=O)(=O)[O-])c5ccc6c(S(=O)(=O)O)cc(S(=O)(=O)O)cc6c5C4(C)C)c3)cc2)nn2c(C)cc(C)nc12 [DPA-713-IRDye680LT, 3-(2-((1E,3Z,5Z)-3-(3-(5-(2-(4-(3-(2-(diethylamino)-2-oxoethyl)-5,7-dimethylpyrazolo[1,5-a]pyrimidin-2-yl)phenoxy)ethylamino)-5-oxopentyl)phenyl)-5-(1,1-dimethyl-6,8-disulfo-3-(3-sulfopropyl)-1Hbenzo[e]indol-2(3H)-ylidene)penta-1,3-dienyl)-1,1-dimethyl-6,8-disulfo-1H-benzo[e]indolium-3-yl)propane-1-sulfonate]",IC50,[1],~325 nM
same,"Blocking of tracer uptake by (R,S)-PK11195","[2]; 40 nM tracer + 1 μM (R,S)-PK11195, 24 hours",no longer blocked
same,"Blocking of tracer uptake by (R,S)-PK11195","[2]; 40 nM tracer + 1 μM unlabeled (R,S)-PK11195, 1 hour",widespread although incomplete blocking
same,Blocking of tracer uptake by unlabeled DPA-713,"[2]; 40 nM tracer + 1 μM unlabeled DPA-713, 1 hour",partial but incomplete blocking
same,"Distribution of fluorescent signal, tracer only",[3]; 1 hour post-injection,only the macrophage enriched PC-3 PIP tumor is clearly visible
same,"Distribution of fluorescent signal, tracer only",[3]; 24 hours post-injection,distributed at the periphery of both tumors in the tracer-only mouse and is strongly retained by TSPO+ kidneys
same,Tumor uptake with co-administered unlabeled DPA-713,"[3]; 8 nmol tracer + 20 mg/kg unlabeled DPA-713, 1 hour post-injection",Neither tumor takes up the fluorescent probe
same,Tumor and kidney uptake with co-injected unlabeled DPA-713,"[3]; 8 nmol tracer + 20 mg/kg unlabeled DPA-713, 24 hours post-injection",neither tumor nor kidney uptake
same,Clearance of unbound probe,"[3]; 24 hours post-injection, intraperitoneal",cleared from the peritoneal space
